Test results as given in ChEMBL document CHEMBL1141017, “Triterpene based compounds with potent anti-maturation activity against HIV-1” (Bioorg Med Chem Lett, 2008).

Tests used:
[1] = Therapeutic index, ratio of TC50 for human MT4 cells to IC50 for HIV1 3B; type: cell-based
[2] = system: Human immunodeficiency virus 1; assay: Antiviral activity against HIV1 NL4-3 infected in human MT4 cells assessed as cytoprotection against virus-induced cytopathic effect after 4 days by cell viability assay; type: functional, organism-based; details: Human immunodeficiency virus 1, NL4-3, MT4, 96 h
[3] = Metabolic stability in human liver microsomes assessed as compound remaining after 40 mins; type: ADME, Microsome; details: read-out: Stability
[4] = Cytotoxicity against human MT4 cells after 4 days by cell viability assay; type: cell-based; details: read-out: TC50
[5] = Therapeutic index, ratio of TC50 for human MT4 cells to EC50 for HIV1 NL43; type: cell-based
[6] = Metabolic stability in Sprague-Dawley rat liver microsomes assessed as compound remaining after 40 mins; type: ADME, Microsome; details: read-out: Stability
[7] = Cytotoxicity against human PBMC by cell viability assay; type: cell-based; details: read-out: TC50 (the source's name)
[8] = system: Human immunodeficiency virus 1; assay: Antiviral activity against HIV1 3B replication in human PBMC assessed as reverse transcriptase activity after 7 days; type: functional, organism-based; details: Human immunodeficiency virus 1, 3B, 168 h

Row | Structure (SMILES) | selectivity ratio [1] | EC50 [2] | remaining at 40 min [3] | CC50 at 96 h [4] | selectivity ratio [5] | remaining at 40 min [6] | CC50 [7] | IC50 [8]
1 | C=C(C)[C@@H]1CC[C@]2(C(=O)NCc3ccc(-c4ccccc4)cc3)CC[C@]3(C)[C@H](CC[C@@H]4[C@@]5(C)CC[C@H](OC(=O)CC(C)(C)C(=O)O)C(C)(C)[C@@H]5CC[C@]43C)[C@@H]12 | > 400 | 267 nM | 10% | > 10000 nM | > 400 | – | – | –
2 | C=C(C)[C@@H]1CC[C@]2(C(=O)N[C@H](C(=O)O)c3ccc(OC)cc3)CC[C@]3(C)[C@H](CC[C@@H]4[C@@]5(C)CC[C@H](OC(=O)CC(C)(C)C(=O)O)C(C)(C)[C@@H]5CC[C@]43C)[C@@H]12 | – | 40 nM | – | 6800 nM | – | – | – | –
3 | C=C(C)[C@@H]1CC[C@]2(C(=O)NCc3cccc(C(=O)NCCNC(C)=O)c3)CC[C@]3(C)[C@H](CC[C@@H]4[C@@]5(C)CC[C@H](OC(=O)CC(C)(C)C(=O)O)C(C)(C)[C@@H]5CC[C@]43C)[C@@H]12 | > 400 | 10 nM | – | 10000 nM | > 400 | 10% | – | –
4 | C=C(C)[C@@H]1CC[C@]2(C(=O)NCc3cccc(OC)c3)CC[C@]3(C)[C@H](CC[C@@H]4[C@@]5(C)CC[C@H](OC(=O)CC(C)(C)C(=O)O)C(C)(C)[C@@H]5CC[C@]43C)[C@@H]12 | > 400 | 19 nM | 10% | > 10000 nM | > 400 | 10% | > 10000 nM | 14 nM
5 | C=C(C)[C@@H]1CC[C@]2(C(=O)NCCCc3ccc(OC)cc3)CC[C@]3(C)[C@H](CC[C@@H]4[C@@]5(C)CC[C@H](OC(=O)CC(C)(C)C(=O)O)C(C)(C)[C@@H]5CC[C@]43C)[C@@H]12 | – | 80 nM | – | 10000 nM | – | – | – | –
6 | C=C(C)[C@@H]1CC[C@]2(C(=O)NCc3cccnc3C(=O)O)CC[C@]3(C)[C@H](CC[C@@H]4[C@@]5(C)CC[C@H](OC(=O)CC(C)(C)C(=O)O)C(C)(C)[C@@H]5CC[C@]43C)[C@@H]12 | – | 24 nM | – | > 10000 nM | – | – | > 10000 nM | 30 nM
7 | C=C(C)[C@@H]1CC[C@]2(C(=O)NCc3ccc4cccc(O)c4n3)CC[C@]3(C)[C@H](CC[C@@H]4[C@@]5(C)CC[C@H](OC(=O)CC(C)(C)C(=O)O)C(C)(C)[C@@H]5CC[C@]43C)[C@@H]12 | – | 3 nM | > 40% | > 10000 nM | – | > 40% | > 10000 nM | 4 nM
8 | C=C(C)[C@@H]1CC[C@]2(C(=O)NCc3ccc(C(=O)O)cn3)CC[C@]3(C)[C@H](CC[C@@H]4[C@@]5(C)CC[C@H](OC(=O)CC(C)(C)C(=O)O)C(C)(C)[C@@H]5CC[C@]43C)[C@@H]12 | – | 1700 nM | – | > 10000 nM | – | – | – | –
9 | C=C(C)[C@@H]1CC[C@]2(C(=O)NCc3ncccc3C(=O)O)CC[C@]3(C)[C@H](CC[C@@H]4[C@@]5(C)CC[C@H](OC(=O)CC(C)(C)C(=O)O)C(C)(C)[C@@H]5CC[C@]43C)[C@@H]12 | – | 129 nM | – | > 10000 nM | – | – | – | –
10 | C=C(C)[C@@H]1CC[C@]2(C(=O)NCc3ccccc3C(=O)NCCNC(C)=O)CC[C@]3(C)[C@H](CC[C@@H]4[C@@]5(C)CC[C@H](OC(=O)CC(C)(C)C(=O)O)C(C)(C)[C@@H]5CC[C@]43C)[C@@H]12 | > 400 | 5 nM | – | 9300 nM | > 400 | – | – | –
11 | C=C(C)[C@@H]1CC[C@]2(C(=O)N[C@H]3CCCc4ccccc43)CC[C@]3(C)[C@H](CC[C@@H]4[C@@]5(C)CC[C@H](OC(=O)CC(C)(C)C(=O)O)C(C)(C)[C@@H]5CC[C@]43C)[C@@H]12 | – | 180 nM | – | > 10000 nM | – | – | – | –
12 | C=C(C)[C@@H]1CC[C@]2(C(=O)NCc3ccccc3C)CC[C@]3(C)[C@H](CC[C@@H]4[C@@]5(C)CC[C@H](OC(=O)CC(C)(C)C(=O)O)C(C)(C)[C@@H]5CC[C@]43C)[C@@H]12 | > 400 | 85 nM | 10% | > 10000 nM | > 400 | – | – | –
13 | C=C(C)[C@@H]1CC[C@]2(C(=O)NCc3ccoc3)CC[C@]3(C)[C@H](CC[C@@H]4[C@@]5(C)CC[C@H](OC(=O)CC(C)(C)C(=O)O)C(C)(C)[C@@H]5CC[C@]43C)[C@@H]12 | – | 7 nM | – | > 10000 nM | – | – | > 10000 nM | 7 nM
14 | C=C(C)[C@@H]1CC[C@]2(C(=O)NCc3nc4ccccc4[nH]3)CC[C@]3(C)[C@H](CC[C@@H]4[C@@]5(C)CC[C@H](OC(=O)CC(C)(C)C(=O)O)C(C)(C)[C@@H]5CC[C@]43C)[C@@H]12 | – | 5 nM | – | 8600 nM | – | – | > 10000 nM | 1 nM
15 | C=C(C)[C@@H]1CC[C@]2(C(=O)NCc3cccc(C(=O)O)c3)CC[C@]3(C)[C@H](CC[C@@H]4[C@@]5(C)CC[C@H](OC(=O)CC(C)(C)C(=O)O)C(C)(C)[C@@H]5CC[C@]43C)[C@@H]12 | > 400 | 480 nM | 10% | 7600 nM | > 400 | 10% | – | –
16 | C=C(C)[C@@H]1CC[C@]2(C(=O)NCc3ccccc3-c3ccccc3)CC[C@]3(C)[C@H](CC[C@@H]4[C@@]5(C)CC[C@H](OC(=O)CC(C)(C)C(=O)O)C(C)(C)[C@@H]5CC[C@]43C)[C@@H]12 | > 400 | 290 nM | – | > 10000 nM | > 400 | – | – | –
17 | C=C(C)[C@@H]1CC[C@]2(C(=O)NCCc3cccc(OC)c3)CC[C@]3(C)[C@H](CC[C@@H]4[C@@]5(C)CC[C@H](OC(=O)CC(C)(C)C(=O)O)C(C)(C)[C@@H]5CC[C@]43C)[C@@H]12 | – | 40 nM | – | > 10000 nM | – | – | – | –
18 | C=C(C)[C@@H]1CC[C@]2(C(=O)NCc3ccc(N(C)C)cc3)CC[C@]3(C)[C@H](CC[C@@H]4[C@@]5(C)CC[C@H](OC(=O)CC(C)(C)C(=O)O)C(C)(C)[C@@H]5CC[C@]43C)[C@@H]12 | > 400 | 30 nM | 10% | 1000 nM | > 400 | 10% | – | –
19 | C=C(C)[C@@H]1CC[C@]2(C(=O)NCc3ccc(C(=O)O)cc3)CC[C@]3(C)[C@H](CC[C@@H]4[C@@]5(C)CC[C@H](OC(=O)CC(C)(C)C(=O)O)C(C)(C)[C@@H]5CC[C@]43C)[C@@H]12 | > 400 | 165 nM | 10% | 8900 nM | > 400 | 10% | – | –
20 | C=C(C)[C@@H]1CC[C@]2(C(=O)NCc3nc4ccccc4s3)CC[C@]3(C)[C@H](CC[C@@H]4[C@@]5(C)CC[C@H](OC(=O)CC(C)(C)C(=O)O)C(C)(C)[C@@H]5CC[C@]43C)[C@@H]12 | – | 33 nM | – | 6800 nM | – | – | > 10000 nM | 3 nM
21 | C=C(C)[C@@H]1CC[C@]2(C(=O)N3Cc4ccccc4C3)CC[C@]3(C)[C@H](CC[C@@H]4[C@@]5(C)CC[C@H](OC(=O)CC(C)(C)C(=O)O)C(C)(C)[C@@H]5CC[C@]43C)[C@@H]12 | – | 70 nM | – | > 10000 nM | – | – | – | –
22 | C=C(C)[C@@H]1CC[C@]2(C(=O)NCc3ccccc3)CC[C@]3(C)[C@H](CC[C@@H]4[C@@]5(C)CC[C@H](OC(=O)CC(C)(C)C(=O)O)C(C)(C)[C@@H]5CC[C@]43C)[C@@H]12 | > 400 | 23 nM | – | > 10000 nM | > 400 | 10% | > 10000 nM | 11 nM
23 | C=C(C)[C@@H]1CC[C@]2(C(=O)NCCCc3ccc(OC)c(OC)c3)CC[C@]3(C)[C@H](CC[C@@H]4[C@@]5(C)CC[C@H](OC(=O)CC(C)(C)C(=O)O)C(C)(C)[C@@H]5CC[C@]43C)[C@@H]12 | – | 20 nM | – | 10000 nM | – | – | – | –
24 | C=C(C)[C@@H]1CC[C@]2(C(=O)N[C@@H](Cc3ccc(OC)cc3)C(=O)O)CC[C@]3(C)[C@H](CC[C@@H]4[C@@]5(C)CC[C@H](OC(=O)CC(C)(C)C(=O)O)C(C)(C)[C@@H]5CC[C@]43C)[C@@H]12 | – | 9 nM | – | 5600 nM | – | – | – | –
25 | C=C(C)[C@@H]1CC[C@]2(C(=O)NCCc3ccc(C(=O)O)cc3)CC[C@]3(C)[C@H](CC[C@@H]4[C@@]5(C)CC[C@H](OC(=O)CC(C)(C)C(=O)O)C(C)(C)[C@@H]5CC[C@]43C)[C@@H]12 | – | 1000 nM | – | 1000 nM | – | – | – | –
26 | C=C(C)[C@@H]1CC[C@]2(C(=O)NCc3ccc(C(=O)NCCNC(C)=O)cc3)CC[C@]3(C)[C@H](CC[C@@H]4[C@@]5(C)CC[C@H](OC(=O)CC(C)(C)C(=O)O)C(C)(C)[C@@H]5CC[C@]43C)[C@@H]12 | > 400 | 30 nM | – | 10000 nM | > 400 | – | – | –
27 | C=C(C)[C@@H]1CC[C@]2(C(=O)N[C@H]3CCc4ccccc43)CC[C@]3(C)[C@H](CC[C@@H]4[C@@]5(C)CC[C@H](OC(=O)CC(C)(C)C(=O)O)C(C)(C)[C@@H]5CC[C@]43C)[C@@H]12 | – | 200 nM | – | > 10000 nM | – | – | – | –
28 | C=C(C)[C@@H]1CC[C@]2(C(=O)NCc3ccc4ccccc4n3)CC[C@]3(C)[C@H](CC[C@@H]4[C@@]5(C)CC[C@H](OC(=O)CC(C)(C)C(=O)O)C(C)(C)[C@@H]5CC[C@]43C)[C@@H]12 | – | 26 nM | – | > 10000 nM | – | – | – | –
